Our source for the dermal thickness and skin epithelium thickness values is patent US20250134909A1, “GEL COMPOSITION FOR PREVENTION OR TREATMENT OF ATOPIC DERMATITIS” (SHAPERON INC., priority 2021, published 2025).

The assay has as its system atopic dermatitis-induced animal model by DNCB. Briefly: Thickness of the epidermis and dermis (H&E), DNCB-induced atopic dermatitis model. It is filed as in vivo, mice. The note with it: 15th day, FIGS. 5 to 7; for dermal thickness: compared to the DNCB group and the normal Sham group; for skin epithelium thickness: compared to the DNCB group. How it is done:
[…] of a solution of 2,4-Dinitrochlorobenzene (DNCB) dissolved in acetone at a concentration of 1% or 2% was applied to the backs of mice with hair removed twice a day for 2 days, then on the 3rd day, a solution of […] containing 1% concentration of DNCB dissolved in acetone was applied twice daily, and additional applications of a solution of […] containing 1% concentration of DNCB dissolved in acetone or a solution diluted 10 times were applied twice daily on the shaved backs of mice until the 10th to 11th day starting from the day of the initial application of DNCB solution, to induce atopic dermatitis (FIG. 1).
To compare and confirm the therapeutic effects of 0.5% HY209_HA gel and 5% HY209_PEG gel on atopic dermatitis through measurement of the thickness of the epidermis and dermis in the atopic dermatitis-induced animal model of <Example 2>, each individual in the groups treated with 0.5% HY209_HA Gel, 5% HY209_PEG gel, Maxidex ointment, Eucrisa ointment, and Protopic ointment in <Experimental Example 1> had their atopic dermatitis-induced areas scarified on the 15th day from the induction of atopic dermatitis, and the Sham (untreated) group, where atopic dermatitis was not induced, and the DNCB group, which was not treated after the induction of atopic dermatitis, were also scarified on the 15th day.
After collecting skin tissues from each group of mice, the tissue samples were sliced and then fixed in 10% formalin solution for 24 hours, then rinsed with distilled water, processed into paraffin blocks, and sectioned into […] thickness slices, these slices were stained with Hematoxylin and Eosin (H&E), and observed under an optical microscope, and then the thickness of the epithelium and dermis were measured using image analysis software and analyzed using analysis software.

Molecules are shown by their SMILES.

Regarding `C=CC[C@@H]1/C=C(\C)C[C@H](C)C[C@H](OC)[C@H]2O[C@@](O)(C(=O)C(=O)N3CCCC[C@H]3C(=O)O[C@H](/C(C)=C/[C@@H]3CC[C@@H](O)[C@H](OC)C3)[C@H](C)[C@@H](O)CC1=O)[C@H](C)C[C@@H]2OC` [FK506, Tacrolimus], the dermal thickness entry is reported as “recovered close to that of the normal Sham group” and the skin epithelium thickness result is on record as “significantly reduced”.

Turning to `N#Cc1ccc(Oc2ccc3c(c2)COB3O)cc1` [Crisaborole], the dermal thickness result was “recovered close to that of the normal Sham group” and the skin epithelium thickness entry is on record as “significantly reduced”.
